# From US12486253B2, “Therapeutics for the degradation of mutant BRAF” (C4 THERAPEUTICS, INC., priority 2021, dated 2025)
# Like-named read-outs stand apart in the source and are kept apart here.
# Target: BRAF V600E (Homo sapiens, UniProt P15056, V600E)
# Assay: HiBiT cellular BRAF^V600E degradation assay
# Assay type: cell-based
# Settings: for DC50: concentration at which 50% of total cellular BRAF^V600E is degraded; for Emax: read-out: HiBit 24 h Emax
# [1] = A375.10 cells, 24 h, residual protein remaining in the cell
# Chain of BRAF V600E (P15056 whole entry V600E): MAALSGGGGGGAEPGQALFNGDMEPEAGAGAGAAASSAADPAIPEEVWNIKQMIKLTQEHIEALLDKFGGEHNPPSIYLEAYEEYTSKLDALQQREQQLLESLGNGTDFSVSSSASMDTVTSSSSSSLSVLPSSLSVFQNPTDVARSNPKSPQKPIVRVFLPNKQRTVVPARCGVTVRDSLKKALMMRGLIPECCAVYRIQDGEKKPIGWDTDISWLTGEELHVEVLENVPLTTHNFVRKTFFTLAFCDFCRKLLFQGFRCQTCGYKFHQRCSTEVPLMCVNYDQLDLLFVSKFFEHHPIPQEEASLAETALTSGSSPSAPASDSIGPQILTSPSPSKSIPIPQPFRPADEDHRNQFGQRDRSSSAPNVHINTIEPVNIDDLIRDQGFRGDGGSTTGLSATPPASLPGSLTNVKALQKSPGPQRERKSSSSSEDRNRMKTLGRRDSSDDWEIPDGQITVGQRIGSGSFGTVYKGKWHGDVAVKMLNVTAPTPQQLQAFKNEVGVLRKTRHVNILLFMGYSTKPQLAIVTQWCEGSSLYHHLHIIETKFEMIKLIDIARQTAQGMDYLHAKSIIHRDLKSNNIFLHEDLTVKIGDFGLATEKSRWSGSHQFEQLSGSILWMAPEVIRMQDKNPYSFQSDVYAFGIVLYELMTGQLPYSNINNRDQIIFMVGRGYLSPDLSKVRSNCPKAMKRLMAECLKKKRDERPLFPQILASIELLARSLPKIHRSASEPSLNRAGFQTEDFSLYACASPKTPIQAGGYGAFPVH
"DC50 (A375.10 cells, 24 h) [µM]",Emax [1] [%],SMILES,Emax [%]
0.00997,9.26,"CCN(C)S(=O)(=O)Nc1ccc(F)c(Oc2ccc3ncn(-c4cnc(N5CCN(C(=O)CN6CCC(c7ccc(NC8CCC(=O)NC8=O)cc7F)CC6)CC5)nc4)c(=O)c3c2)c1C#N (stereo not drawn) [Example 84, 6-[2-cyano-3-[[ethyl(methyl)sulfamoyl]amino]-6-fluorophenoxy]-3-[2-[4-[2-[4-[4-[(2,6-dioxopiperidin-3-yl)amino]-2-fluorophenyl]piperidin-1-yl]acetyl]piperazin-1-yl]pyrimidin-5-yl]-4-oxoquinazoline]",
0.0403,11.4,"CCN(C)S(=O)(=O)Nc1ccc(F)c(Oc2ccc3ncn(C4CCC5(CC4)CCN(C(=O)CN4CCC(c6ccc(NC7CCC(=O)NC7=O)cc6F)CC4)C5)c(=O)c3c2)c1C#N (stereo not drawn) [Example 32, 6-[2-cyano-3-[[ethyl(methyl)sulfamoyl]amino]-6-fluorophenoxy]-3-[2-[2-[4-[4-[(2,6-dioxopiperidin-3-yl)amino]-2-fluorophenyl]piperidin-1-yl]acetyl]-2-azaspiro[4.5]decan-8-yl]-4-oxoquinazoline]",
0.0232,9.75,"CCN(C)S(=O)(=O)Nc1ccc(F)c(Oc2ccc3ncn(C4CCC5(CC4)CCN(C(=O)CN4CCC(c6ccc7c(N8CCC(=O)NC8=O)nn(C)c7c6)CC4)CC5)c(=O)c3c2)c1C#N [Example 155, 9-[6-[2-cyano-3-[[ethyl(methyl)sulfamoyl]amino]-6-fluorophenoxy]-4-oxoquinazolin-3-yl]-3-[2-[4-[3-(2,4-dioxo-1,3-diazinan-1-yl)-1-methylindazol-6-yl]piperidin-1-yl]acetyl]-3-azaspiro[5.5]undecane]",
0.015,22.2,"CCN(C)S(=O)(=O)Nc1ccc(F)c(Oc2ccc3ncn(C4COC5(CCN(C(=O)CC6(O)CCN(c7ccc(NC8CCC(=O)NC8=O)cc7F)CC6)CC5)C4)c(=O)c3c2)c1C#N (stereo not drawn) [Example 27, 3-[6-[2-cyano-3-[[ethyl(methyl)sulfamoyl]amino]-6-fluorophenoxy]-4-oxoquinazolin-3-yl]-8-[2-[1-[4-[(2,6-dioxopiperidin-3-yl)amino]-2-fluorophenyl]-4-hydroxypiperidin-4-yl]acetyl]-1-oxa-8-azaspiro[4.5]decane]",
0.055,26.3,"CCN(C)S(=O)(=O)Nc1ccc(F)c(C(=O)c2ccc3ncn(-c4cnc(N5CCN(C(=O)CN6CCC(c7ccc(N[C@@H]8CCC(=O)NC8=O)cc7F)CC6)CC5)nc4)c(=O)c3c2)c1F [Example 141, 3-[2-[4-[2-[4-[4-[[(3R)-2,6-dioxopiperidin-3-yl]amino]-2-fluorophenyl]piperidin-1-yl]acetyl]piperazin-1-yl]pyrimidin-5-yl]-6-[3-[[ethyl(methyl)sulfamoyl]amino]-2,6-difluorobenzoyl]-4-oxoquinazoline]",
0.0296,10.9,"CCN(C)S(=O)(=O)Nc1ccc(F)c(Oc2ccc3ncn(C4COC5(CCN(C(=O)CN6CCC(c7ccc(NC8CCC(=O)NC8=O)cc7F)CC6)CC5)C4)c(=O)c3c2F)c1C#N (stereo not drawn) [Example 51, 3-[6-[2-cyano-3-[[ethyl(methyl)sulfamoyl]amino]-6-fluorophenoxy]-5-fluoro-4-oxoquinazolin-3-yl]-8-[2-[4-[4-[(2,6-dioxopiperidin-3-yl)amino]-2-fluorophenyl]piperidin-1-yl]acetyl]-1-oxa-8-azaspiro[4.5]decane]",
0.0296,10.5,"CCN(C)S(=O)(=O)Nc1ccc(F)c(Oc2ccc3ncc([C@@H]4COC5(CCN(C(=O)CN6CCC(c7ccc(NC8CCC(=O)NC8=O)cc7F)CC6)CC5)C4)nc3c2)c1C#N (stereo partly drawn) [Example 223, (3R)-3-[7-[2-cyano-3-[[ethyl(methyl)sulfamoyl]amino]-6-fluorophenoxy]quinoxalin-2-yl]-8-[2-[4-[4-[(2,6-dioxopiperidin-3-yl)amino]-2-fluorophenyl]piperidin-1-yl]acetyl]-1-oxa-8-azaspiro[4.5]decane]",
0.00948,15.4,"CCN(C)S(=O)(=O)Nc1ccc(F)c(Oc2ccc3ncn([C@H]4COC5(CCN(C(=O)CN6CCC(c7ccc(C8CCC(=O)NC8=O)cc7F)C(F)(F)C6)CC5)C4)c(=O)c3c2)c1C#N (stereo partly drawn) [Example 65, (3R)-3-[6-[2-cyano-3-[[ethyl(methyl)sulfamoyl]amino]-6-fluorophenoxy]-4-oxoquinazolin-3-yl]-8-[2-[4-[4-(2,6-dioxopiperidin-3-yl)-2-fluorophenyl]-3,3-difluoropiperidin-1-yl]acetyl]-1-oxa-8-azaspiro[4.5]decane]",
0.0394,28.2,"CCN(C)S(=O)(=O)Nc1ccc(F)c(Oc2ccc3ncc([C@@H]4COC5(CCN(C(=O)CC6(O)CCN(c7cc8c(cc7F)c(N7CCC(=O)NC7=O)nn8C)CC6)CC5)C4)c(OC)c3c2)c1C#N (single isomer, unassigned) [Example 226]",
0.0195,10.8,"CCN(C)S(=O)(=O)Nc1ccc(F)c(Oc2ccc3ncn(C4COC5(CCN(C(=O)CN6CCC(c7ccc(NC8CCC(=O)NC8=O)cc7F)CC6)CC5)C4)c(=O)c3c2)c1C#N (stereo not drawn) [Example 24, 3-[6-[2-cyano-3-[[ethyl(methyl)sulfamoyl]amino]-6-fluorophenoxy]-4-oxoquinazolin-3-yl]-8-[2-[4-[4-[(2,6-dioxopiperidin-3-yl)amino]-2-fluorophenyl]piperidin-1-yl]acetyl]-1-oxa-8-azaspiro[4.5]decane]",
0.0272,8.2,"N#Cc1c(NS(=O)(=O)C2CCC2)ccc(F)c1Oc1ccc2ncn(-c3cnc(N4CCN(C(=O)CN5CCC(c6ccc(N[C@@H]7CCC(=O)NC7=O)cc6F)CC5)CC4)nc3)c(=O)c2c1 [Example 133, N-[2-cyano-3-[3-[2-[4-[2-[4-[4-[[(3R)-2,6-dioxopiperidin-3-yl]amino]-2-fluorophenyl]piperidin-1-yl]acetyl]piperazin-1-yl]pyrimidin-5-yl]-4-oxoquinazolin-6-yl]oxy-4-fluorophenyl]cyclobutanesulfonamide]",
0.00841,10.6,"CO[C@@H]1CCN(S(=O)(=O)Nc2ccc(F)c(Oc3ccc4ncn(-c5cnc(N6CCN(C(=O)CN7CCC(c8ccc(N[C@@H]9CCC(=O)NC9=O)cc8F)CC7)CC6)nc5)c(=O)c4c3)c2C#N)C1 [Example 97, (3R)—N-[2-cyano-3-[3-[2-[4-[2-[4-[4-[[(3R)-2,6-dioxopiperidin-3-yl]amino]-2-fluorophenyl]piperidin-1-yl]acetyl]piperazin-1-yl]pyrimidin-5-yl]-4-oxoquinazolin-6-yl]oxy-4-fluorophenyl]-3-methoxypyrrolidine-1-sulfonamide]",
0.0113,10.2,"CCN(C)S(=O)(=O)Nc1ccc(F)c(Oc2ccc3ncn([C@H]4CCC5(CCN(C(=O)CN6CCC(c7ccc(C8CCC(=O)NC8=O)cc7F)C(F)(F)C6)CC5)C4)c(=O)c3c2)c1C#N (stereo partly drawn) [Example 66, 6-[2-cyano-3-[[ethyl(methyl)sulfamoyl]amino]-6-fluorophenoxy]-3-[(3S)-8-[2-[4-[4-(2,6-dioxopiperidin-3-yl)-2-fluorophenyl]-3,3-difluoropiperidin-1-yl]acetyl]-8-azaspiro [4.5]decan-3-yl]-4-oxoquinazoline]",
0.00828,12.9,"CCN(C)S(=O)(=O)Nc1ccc(F)c(Oc2ccc3ncn(-c4cnc(N5CCN(C(=O)CN6CCC(c7ccc(NC8CCC(=O)NC8=O)cc7F)CC6)CC5)nc4)c(=O)c3c2F)c1C#N (stereo not drawn) [Example 86, 6-[2-cyano-3-[[ethyl(methyl)sulfamoyl]amino]-6-fluorophenoxy]-3-[2-[4-[2-[4-[4-[(2,6-dioxopiperidin-3-yl)amino]-2-fluorophenyl]piperidin-1-yl]acetyl]piperazin-1-yl]pyrimidin-5-yl]-5-fluoro-4-oxoquinazoline]",
0.0387,24.1,"Cn1nc(N2CCC(=O)NC2=O)c2cc(F)c(N3CCC(O)(CC(=O)N4CCC5(CC4)C[C@@H](n4cnc6ccc(Oc7c(F)ccc(NS(=O)(=O)N8CCCCC8)c7C#N)cc6c4=O)CO5)CC3)cc21 [Example 187, N-[2-cyano-3-[3-[(3R)-8-[2-[1-[3-(2,4-dioxo-1,3-diazinan-1-yl)-5-fluoro-1-methylindazol-6-yl]-4-hydroxypiperidin-4-yl]acetyl]-1-oxa-8-azaspiro[4.5]decan-3-yl]-4-oxoquinazolin-6-yl]oxy-4-fluorophenyl]piperidine-1-sulfonamide]",

SMILES,"DC50 (A375.10 cells, 24 h) [µM]",Emax [1] [%],Emax [%]
"CCN(C)S(=O)(=O)Nc1ccc(F)c(Oc2ccc3ncn(C4COC5(CCN(C(=O)NC6CCN(c7ccc(NC8CCC(=O)NC8=O)cc7F)CC6)CC5)C4)c(=O)c3c2)c1C#N (stereo not drawn) [Example 38, 3-[6-[2-cyano-3-[[ethyl(methyl)sulfamoyl]amino]-6-fluorophenoxy]-4-oxoquinazolin-3-yl]-N-[1-[4-[(2,6-dioxopiperidin-3-yl)amino]-2-fluorophenyl]piperidin-4-yl]-1-oxa-8-azaspiro[4.5]decane-8-carboxamide]",0.036,,11.4
"CCN(C)S(=O)(=O)Nc1ccc(F)c(Oc2ccc3ncn(-c4ccc(N5CCN(C(=O)CN6CCC(c7cc(OC)c(NC8CCC(=O)NC8=O)cc7F)CC6)CC5)nc4)c(=O)c3c2)c1C#N (stereo not drawn) [Example 90, 6-[2-cyano-3-[[ethyl(methyl)sulfamoyl]amino]-6-fluorophenoxy]-3-[6-[4-[2-[4-[4-[(2,6-dioxopiperidin-3-yl)amino]-2-fluoro-5-methoxyphenyl]piperidin-1-yl]acetyl]piperazin-1-yl]pyridin-3-yl]-4-oxoquinazoline]",0.0235,,10.7
"CCN(C)S(=O)(=O)Nc1ccc(F)c(Oc2ccc3ncn(-c4cnc(N5CCN(C(=O)CN6CCC(c7ccc(N[C@@H]8CCC(=O)NC8=O)cc7F)CC6)CC5)nc4)c(=O)c3c2)c1C#N [Example 95, 6-[2-cyano-3-[[ethyl(methyl)sulfamoyl]amino]-6-fluorophenoxy]-3-[2-[4-[2-[4-[4-[[(3R)-2,6-dioxopiperidin-3-yl]amino]-2-fluorophenyl]piperidin-1-yl]acetyl]piperazin-1-yl]pyrimidin-5-yl]-4-oxoquinazoline]",0.0107,,10.4
